Source: patent US11319303B2 (WIGEN BIOMEDICINE TECHNOLOGY (SHANGHAI) CO., LTD., priority 2017, dated 2022)
Structures can show the parent of a compound that is named as a salt.

biological target: LC3B (Homo sapiens, UniProt Q9GZQ8); test: Fluorescence Polarization (FP) Assay: displacement of FITC-labeled peptide from GST-LC3B; type: binding; conditions: Fluorescence Polarization assay; GST-LC3B 180 nM, FITC-labeled peptide 18 nM, 25° C.; read-out: IC50
Method: The compounds of the present invention for regulating the autophagy-related protein LC3B were tested by Fluorescence Polarization (FP) Assay.
Fluorescence Polarization (FP) Assay Test

| SMILES | IC50 |
| --- | --- |
| CN(C)CCNC=C1C(=O)CC(c2ccc(Cl)cc2F)CC1=O (stereo not drawn) [Compound 382, 5-(4-chloro-2-fluorophenyl)-2-(((2-(dimethylamino)ethyl)amino)methylene) cyclohexane-1,3-dione] | < 3 µM |
| O=C1CC(c2ccccc2)CC(=O)C1=CNCC1CCNCC1 (stereo not drawn) [Compound 161, 5-phenyl-2-(((piperidin-4-ylmethyl)amino)methylene) cyclohexane-1,3-dione hydrochloride] | 100 to 1000 µM |
| COc1ccc(Br)c(C2CC(=O)C(=CO)C(=O)C2)c1 (stereo not drawn) [Compound 432, 2-(hydroxymethylene)-5-(2-bromo-5-methoxyphenyl)cyclo-hexane-1,3-dione] | < 3 µM |
| O=C(O)CCCNC=C1C(=O)CC(c2ccccc2)CC1=O (stereo not drawn) [Compound 131, 4-(((2,6-dioxo-4-phenylcyclo-hexylidene)methyl)amino) butanoic acid] | 15 to 100 µM |
| Cc1ccc(C2CC(=O)C(=CNCCN3CCN(CCO)CC3)C(=O)C2)c(Br)c1 (stereo not drawn) [Compound 329, 5-(2-bromo-4-methylphenyl)-2-(((2-(4-(2-hydroxyethyl)piperazin-1-yl)ethyl)amino)methylene) cyclohexane-1,3-dione] | < 3 µM |
| Cc1ccc(C2CC(=O)C(=CNCCN3CCN(CCO)CC3)C(=O)C2)cc1 (stereo not drawn) [Compound 229, 2-(((2-(4-(2-hydroxyethyl)piperazin-1-yl)ethyl)amino)methylene)-5-(p-tolyl) cyclohexane-1,3-dione] | < 3 µM |
| CN(C)CCNC=C1C(=O)CC(C(=O)Nc2ccc(Cl)cc2)CC1=O (stereo not drawn) [Compound 363, N-(4-chlorophenyl)-4-(((2-(dimethylamino)ethyl)amino)methylene)-3,5-dioxocyclohexane-1-carboxamide] | 3 to 15 µM |
| COc1ccc(CNC=C2C(=O)CC(c3ccccc3)CC2=O)cc1 (stereo not drawn) [Compound 145, 2-(((4-methoxybenzyl)amino)methylene)-5-phenylcyclo-hexane-1,3-dione] | 100 to 1000 µM |
| CN(C)CCNC=C1C(=O)CC(c2ccc(F)c(F)c2F)CC1=O (stereo not drawn) [Compound 401, 2-(((2-(dimethylamino)ethyl)amino)methylene)-5-(2,3,4-trifluorophenyl) cyclohexane-1,3-dione] | < 3 µM |
| O=C1CC(c2cccc(Cl)c2Cl)CC(=O)C1=CN1CCCCC1 (stereo not drawn) [Compound 408, 5-(2,3-dichlorophenyl)-2-(piperidine-1-ylmethylene) cyclohexane-1,3-dione] | 3 to 15 µM |
| CC1(C)OC(=O)C(=CNCCN2CCN(CCO)CC2)C(=O)O1 [Compound 1, 5-(((2-(4-(2-hydroxyethyl)piperazin-1-yl)ethyl)amino)methylene)-2,2-dimethyl-1,3-dioxane-4,6-dione] | 100 to 1000 µM |
| CN(C)C(=O)N1CCN(CCNC=C2C(=O)CC(c3ccc(Cl)cc3)CC2=O)CC1 (stereo not drawn) [Compound 248, 4-(2-(((4-(4-chlorophenyl)-2,6-dioxocyclo-hexylidene)methyl)amino)ethyl)-N,N-dimethylpiperazine-1-carboxamide] | < 3 µM |
| CC1(C)C(=O)C(=CNCCN2CCN(CCO)CC2)C(=O)CC1c1ccccc1 (stereo not drawn) [Compound 324, 2-(((2-(4-(2-hydroxyethyl)piperazin-1-yl)ethyl)amino)methylene)-4,4-dimethyl-5-phenylcyclohexane-1,3-dione] | 3 to 15 µM |
| O=C1CN(Cc2ccccc2)CC(=O)C1=CNCCN1CCN(CCO)CC1 [Compound 103, 1-benzyl-4-(((2-(4-(2-hydroxyethyl)piperazin-1-yl)ethyl)amino)methylene)-piperidine-3,5-dione] | 15 to 100 µM |
| O=C1CC(c2cccs2)CC(=O)C1=CNCCN1CCN(CCO)CC1 (stereo not drawn) [Compound 37, 2-(((2-(4-(2-hydroxyethyl)piperazin-1-yl)ethyl)amino)methylene)-5-(thiophen-2-yl) cyclohexane-1,3-dione] | < 3 µM |
| CN(C)CCNC=C1C(=O)CC(c2c(Cl)ccc(F)c2Cl)CC1=O (stereo not drawn) [Compound 411, 5-(2,6-dichloro-3-fluorophenyl)-2-(((2-(dimethylamino)ethyl)amino)methylene) cyclohexane-1,3-dione] | < 3 µM |
| O=C1Nc2c(cccc2-c2ccccc2)C(=O)/C1=C\NCCN1CCN(CCO)CC1 [Compound 321, 3-(((2-(4-(2-hydroxyethyl)piperazin-1-yl)ethyl)amino)methylene)-8-phenylquinoline-2,4(1H,3H)-dione] | 3 to 15 µM |
| CN(C)C=C1C(=O)CC(c2cn(C)c3ccccc23)CC1=O (stereo not drawn) [Compound 294, 2-((dimethylamino)methylene)-5-(1-methyl-1H-indol-3-yl)cyclohexane-1,3-dione] | < 3 µM |
| CN(C)C=C1C(=O)CC(c2cccc3ccccc23)CC1=O (stereo not drawn) [Compound 277, 2-((dimethylamino)methylene)-5-(naphthalen-1-yl)cyclohexane-1,3-dione] | < 3 µM |
| COc1ccc(C2CC(=O)C(=CNCCN3CCN(CCO)CC3)C(=O)C2)c(OC)c1 (stereo not drawn) [Compound 46, 5-(2,4-dimethoxyphenyl)-2-(((2-(4-(2-hydroxyethyl)piperazin-1-yl)ethyl)amino)methylene) cyclohexane-1,3-dione] | < 3 µM |
| CN(C)C=C1C(=O)CC(c2ccc(C(F)(F)F)cc2)CC1=O (stereo not drawn) [Compound 254, 2-((dimethylamino)methylene)-5-(4-(trifluoromethyl)phenyl) cyclohexane-1,3-dione] | < 3 µM |
| O=C1CC(c2ccccc2)CC(=O)C1=CO (stereo not drawn) [Compound 444, 2-(hydroxymethylene)-5-phenylcyclohexane-1,3-dione] | 3 to 15 µM |
| O=C1CC(c2ccsc2)CC(=O)C1=CO (stereo not drawn) [Compound 428, 2-(hydroxymethylene)-5-(3-thiophen)cyclohexane-1,3-dione] | 3 to 15 µM |
| O=C1CC(c2ccnc3[nH]ccc23)CC(=O)C1=CNCCN1CCN(CCO)CC1 (stereo not drawn) [Compound 17, 2-(((2-(4-(2-hydroxyethyl)piperazin-1-yl)ethyl)amino)methylene)-5-(1H-pyrrolo[2,3-b]pyridin-4-yl)cyclohexane-1,3-dione] | 3 to 15 µM |
| CC(O)C(NC=C1C(=O)CC(c2ccccc2)CC1=O)C(=O)O (stereo not drawn) [Compound 158, 2-(((2,6-dioxo-4-phenylcyclo-hexylidene)methyl)amino)-3-hydroxybutanoic acid] | 100 to 1000 µM |
| O=C1CC(Cc2ccccc2)C(=O)/C1=C/NCCN1CCN(CCO)CC1 (stereo not drawn) [Compound 115, 4-benzyl-2-(((2-(4-(2-hydroxyethyl)piperazin-1-yl)ethyl)amino)-methylene)cyclopentane-1,3-dione] | 3 to 15 µM |
| CN(C)C=C1C(=O)CC(c2csc3ccccc23)CC1=O (stereo not drawn) [Compound 282, 5-(benzo[b]thiophen-3-yl)-2-((dimethylamino)methylene) cyclohexane-1,3-dione] | < 3 µM |
| O=C1CC(c2cccc3[nH]ccc23)CC(=O)C1=CO (stereo not drawn) [Compound 429, 2-(hydroxymethylene)-5-(1H-indol-4-yl)cyclohexane-1,3-dione] | < 3 µM |
| CN(C)CCNC=C1C(=O)CC(c2cc(Cl)cc(Cl)c2Cl)CC1=O (stereo not drawn) [Compound 364, 2-(((2-(dimethylamino)ethyl)amino)methylene)-5-(2,3,5-trichlorophenyl) cyclohexane-1,3-dione] | < 3 µM |
| CN(C)CCNC=C1C(=O)CC(c2c[nH]cc2Br)CC1=O (stereo not drawn) [Compound 413, 5-(4-bromo-1H-pyrrole-3-yl)-2-(((2-(dimethylamino)ethyl)amino)methylene) cyclohexane-1,3-dione] | 3 to 15 µM |
